Data taken from PubChem BioAssay AID1259411 (Chemical Carcinogenesis Research Information System (CCRIS), 2018).
Active and inactive are the calls of the source. How the calls were made is not given here.

System: rodent carcinogenicity bioassays, tumor incidence
Assay: CCRIS carcinogenicity studies
In short: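 Archive of carcinogenicity, mutagenicity, tumor promotion and tumor inhibition results drawn from journals, NCI reports and other sources, expert-reviewed; covers 1985-2011 and is no longer updated.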

**Q.** Which carcinogen call (Species: FISH, Strain/Sex: ORYZIPIAS LATIPES/FEMALE, Route: IMMERSION, Dose: 0, 0.017, 0.151, 1.463 MG/L AQUEOUS SOLUTION FOR 6 MO (STUDY DURATION: 6 MO), Dose: 0, 0.017, 0.151, 1.463 MG/L AQUEOUS SOLUTION FOR 6 MO (STUDY DURATION: 6 MO)) does the source give for ClC(Cl)Cl here?
**A.** inactive; negative

**Q.** And the carcinogen call (Species: FISH, Strain/Sex: ORYZIPIAS LATIPES/FEMALE, Route: IMMERSION, Dose: 0, 0.017, 0.151, 1.463 MG/L AQUEOUS SOLUTION FOR 9 MO (STUDY DURATION: 9 MO), Dose: 0, 0.017, 0.151, 1.463 MG/L AQUEOUS SOLUTION FOR 9 MO (STUDY DURATION: 9 MO))?
**A.** inactive; negative

**Q.** What about the carcinogen call (Species: FISH, Strain/Sex: ORYZIPIAS LATIPES/MALE, Route: IMMERSION, Dose: 0, 0.017, 0.151, 1.463 MG/L AQUEOUS SOLUTION FOR 6 MO (STUDY DURATION: 6 MO), Dose: 0, 0.017, 0.151, 1.463 MG/L AQUEOUS SOLUTION FOR 6 MO (STUDY DURATION: 6 MO)) of the same compound?
**A.** inactive; negative

**Q.** And the carcinogen call (Species: FISH, Strain/Sex: ORYZIPIAS LATIPES/MALE, Route: IMMERSION, Dose: 0, 0.017, 0.151, 1.463 MG/L AQUEOUS SOLUTION FOR 9 MO (STUDY DURATION: 9 MO), Dose: 0, 0.017, 0.151, 1.463 MG/L AQUEOUS SOLUTION FOR 9 MO (STUDY DURATION: 9 MO))?
**A.** inactive; negative

**Q.** What about the carcinogen call (Species: MOUSE, Strain/Sex: B6C3F1/FEMALE, Route: ORAL, Dose: 0, 200, 400, 900, 1800 MG/L IN DRINKING WATER FOR 104 WK (STUDY DURATION: 24 MO), Dose: 0, 200, 400, 900, 1800 MG/L IN DRINKING WATER FOR 104 WK (STUDY DURATION: 24 MO)) of the same compound?
**A.** inactive; negative

**Q.** And the carcinogen call (Species: MOUSE, Strain/Sex: B6C3F1/FEMALE, Route: ORAL, Dose: 0, 200, 400, 900, 1800 ML/L IN DRINKING WATER FOR AN AVERAGE DOSE OF 0, 34, 65, 130, 263 MG/KG BW/D FOR 104 WK (STUDY DU, Dose: 0, 200, 400, 900, 1800 ML/L IN DRINKING WATER FOR AN AVERAGE DOSE OF 0, 34, 65, 130, 263 MG/KG BW/D FOR 104 WK (STUDY DU)?
**A.** inactive; negative

**Q.** What about the carcinogen call (Species: MOUSE, Strain/Sex: B6C3F1/MALE,FEMALE, Route: GAVAGE, Tumor Site: Type of Lesion: LIVER: HEPATOCELLULAR CARCINOMA) of the same compound?
**A.** active; positive

**Q.** What about the carcinogen call (Species: MOUSE, Strain/Sex: BDF1/FEMALE, Route: INHALATION, Dose: 0, 5, 30, 90 PPM IN AIR, 6 HR/D, 5 D/WK FOR 104 WK (STUDY DURATION: 104 WK), Dose: 0, 5, 30, 90 PPM IN AIR, 6 HR/D, 5 D/WK FOR 104 WK (STUDY DURATION: 104 WK), Tumor Site: Type of Lesion: LIVER: HEPATOCELLULAR CARCINOMA, HEPATOCELLULAR CARCINOMA AND ADENOMA) of the same compound?
**A.** active; positive

**Q.** What about the carcinogen call (Species: MOUSE, Strain/Sex: BDF1/MALE, Route: INHALATION, Dose: 0, 5, 30, 90 PPM IN AIR, 6 HR/D, 5 D/WK FOR 104 WK (STUDY DURATION: 104 WK), Dose: 0, 5, 30, 90 PPM IN AIR, 6 HR/D, 5 D/WK FOR 104 WK (STUDY DURATION: 104 WK), Tumor Site: Type of Lesion: LIVER: HEPATOCELLULAR CARCINOMA, HEPATOCELLULAR CARCINOMA AND ADENOMA, KIDNEYS: RENAL CELL CARCINOMA, RENAL CELL ADENOMA) of the same compound?
**A.** active; positive

**Q.** And the carcinogen call (Species: RAT, Strain/Sex: F344/DUCRJ/MALE, Route: INHALATION, Dose: 0;25, 50, 100 PPM VAPOR CHAMBER 6 HR/D, 5 D/WK FOR 104 WK (STUDY DURATION: 104 WK), Dose: 0;25, 50, 100 PPM VAPOR CHAMBER 6 HR/D, 5 D/WK FOR 104 WK (STUDY DURATION: 104 WK))?
**A.** inactive; negative

**Q.** And the carcinogen call (Species: RAT, Strain/Sex: F344/DUCRJ/MALE, Route: ORAL AND INHALATION, Dose: 0, 1,000 PPM IN DRINKING WATER AND 0, 25, 50, 100 PPM VAPOR CHAMBER 6 HR/D, 5 D/WK , BOTH FOR 104 WK (STUDY DURATION: 10, Dose: 0, 1,000 PPM IN DRINKING WATER AND 0, 25, 50, 100 PPM VAPOR CHAMBER 6 HR/D, 5 D/WK , BOTH FOR 104 WK (STUDY DURATION: 10, Tumor Site: Type of Lesion: KIDNEY: ADENOMA, CARCINOMA, THYROID: ADENOMA, CARCINOMA)?
**A.** active; positive

**Q.** What about the carcinogen call (Species: RAT, Strain/Sex: F344/DUCRJ/MALE, Route: ORAL, Dose: 0, 1,000 PPM IN DRINKING FOR 104 WK (STUDY DURATION: 104 WK)) of the same compound?
**A.** inactive; negative

**Q.** What about the carcinogen call (Species: RAT, Strain/Sex: F344/FEMALE, Route: INHALATION, Dose: 0, 10, 30, 90 PPM IN AIR, 6 HR/D, 5 D/WK FOR 104 WK (STUDY DURATION: 104 WK), Dose: 0, 10, 30, 90 PPM IN AIR, 6 HR/D, 5 D/WK FOR 104 WK (STUDY DURATION: 104 WK)) of the same compound?
**A.** inactive; negative

**Q.** And the carcinogen call (Species: RAT, Strain/Sex: F344/MALE, Route: INHALATION, Dose: 0, 10, 30, 90 PPM IN AIR, 6 HR/D, 5 D/WK FOR 104 WK (STUDY DURATION: 104 WK), Dose: 0, 10, 30, 90 PPM IN AIR, 6 HR/D, 5 D/WK FOR 104 WK (STUDY DURATION: 104 WK))?
**A.** inactive; negative

**Q.** What about the carcinogen call (Species: RAT, Strain/Sex: OSBORNE-MENDEL/MALE, Route: GAVAGE, Tumor Site: Type of Lesion: KIDNEY: ADENOMA, CARCINOMA) of the same compound?
**A.** active; positive

**Q.** And the carcinogen call (Species: RAT, Strain/Sex: OSBORNE-MENDEL/MALE, Route: ORAL, Dose: 0, 200, 400, 900, 1800 MG/L IN DRINKING WATER FOR 104 WK (STUDY DURATION: 24 MO), Dose: 0, 200, 400, 900, 1800 MG/L IN DRINKING WATER FOR 104 WK (STUDY DURATION: 24 MO), Tumor Site: Type of Lesion: KIDNEY: TUBULAR CELL CARCINOMA OR ADENOCARCINOMA, TUBULAR CELL CARCINOMA, ADRENAL GLAND: CORTICAL ADENOMA, PHEOCHROMOCYT)?
**A.** active; positive

**Q.** And the carcinogen call (Species: RAT, Strain/Sex: OSBORNE-MENDEL/MALE, Route: ORAL, Dose: 0, 200, 400, 900, 1800 ML/L IN DRINKING WATER FOR AN AVERAGE DOSE OF 0, 19, 38, 81, 160 MG/KG BW/D FOR 104 WK (STUDY DUR, Dose: 0, 200, 400, 900, 1800 ML/L IN DRINKING WATER FOR AN AVERAGE DOSE OF 0, 19, 38, 81, 160 MG/KG BW/D FOR 104 WK (STUDY DUR, Tumor Site: Type of Lesion: KIDNEY (TUBULAR CELL): ADENOMA OR ADENOCARCINOMA)?
**A.** active; positive

**Q.** And the carcinogen call (Species: RAT, Strain/Sex: WISTAR/FEMALE, Route: ORAL, Dose: 0, 2 ML/L (24 MILLIMOLAR) IN DRINKING WATER FOR 72 WK THEN DOSE HALVED FOR DURATION OF STUDY (STUDY DURATION: LIFETIME), Tumor Site: Type of Lesion: LIVER: NEOPLASTIC NODULES)?
**A.** active; positive

**Q.** What about the carcinogen call (Species: RAT, Strain/Sex: WISTAR/MALE, Route: ORAL, Dose: 0, 2 ML/L (24 MILLIMOLAR) IN DRINKING WATER FOR 72 WK THEN DOSE HALVED FOR DURATION OF STUDY (STUDY DURATION: LIFETIME)) of the same compound?
**A.** inactive; negative

**Q.** What about the carcinogen call (Species: Rat, Strain/Sex: F344/DuCrj/ Male (50 per group), Route: Inhalation and oral (drinking water), Dose: 0, 25, 50, 100 ppm in air, 6 hr/d, 5 d/wk for 104 wk, each group also given chloroform-formulated drinking water (1000 p, Dose: 0, 25, 50, 100 ppm in air, 6 hr/d, 5 d/wk for 104 wk, each group also given chloroform-formulated drinking water (1000 p, Tumor Site: Type of Lesion: KIDNEY: renal-cell adenomas and carcinomas) of the same compound?
**A.** active; positive, positive trend; significant increase in high dose group; exposure leve

**Q.** And the carcinogen call (Species: Rat, Strain/Sex: F344/DuCrj/ Male (50 per group), Route: Inhalation, Dose: 0, 25, 50, 100 ppm in air, 6 hr/d, 5 d/wk for 104 wk, Dose: 0, 25, 50, 100 ppm in air, 6 hr/d, 5 d/wk for 104 wk, Tumor Site: Type of Lesion: KIDNEY: one renal-cell adenoma in the high dose group)?
**A.** inactive; negative

**Q.** Nc1ccc(N(CCO)CCO)cc1 was tested. Which carcinogen call (Species: RAT, Strain/Sex: F344/FEMALE, Route: ORAL, Dose: 0, 300, 1000, 3000 PPM IN DIET FOR 104 WK (STUDY DURATION: 104 WK), Dose: 0, 300, 1000, 3000 PPM IN DIET FOR 104 WK (STUDY DURATION: 104 WK)) did it give?
**A.** inactive; negative

**Q.** What about the carcinogen call (Species: RAT, Strain/Sex: F344/MALE, Route: ORAL, Dose: 0, 300, 1000, 3000 PPM IN DIET FOR 104 WK (STUDY DURATION: 104 WK), Dose: 0, 300, 1000, 3000 PPM IN DIET FOR 104 WK (STUDY DURATION: 104 WK)) of the same compound?
**A.** inactive; negative
